Experimental data reported in PubChem BioAssay (NCI).
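Test compounds were applied to cells in 96-well plates for 48 hours at 5 doses. TGI marks complete inhibition of growth.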

Columns and labels:
Experiment in all cases: inhibition of tumour cell growth, NCI panel, 48 h
NCI-H460 lung = system: NCI-H460 lung
DLD-1 colon = system: DLD-1 colon
SK-MEL-28 melanoma = system: SK-MEL-28 melanoma
SR leukemia = system: SR leukemia
SN12C renal = system: SN12C renal
K-562 leukemia = system: K-562 leukemia
SF-295 CNS = system: SF-295 CNS
HOP-62 NSCLC = system: HOP-62 NSCLC
MDA-N = system: MDA-N
CCRF-CEM leukemia = system: CCRF-CEM leukemia
HCT-116 colon = system: HCT-116 colon
CAKI-1 renal = system: CAKI-1 renal
LOX IMVI melanoma = system: LOX IMVI melanoma
BT-549 breast = system: BT-549 breast
DMS 273 small cell lung = system: DMS 273 small cell lung
UACC-257 melanoma = system: UACC-257 melanoma
OVCAR-5 ovarian = system: OVCAR-5 ovarian
HOP-92 NSCLC = system: HOP-92 NSCLC
MALME-3M melanoma = system: MALME-3M melanoma
NCI-H23 lung = system: NCI-H23 lung
SNB-78 CNS = system: SNB-78 CNS
M14 melanoma = system: M14 melanoma
NCI-H522 lung = system: NCI-H522 lung
HT29 colon = system: HT29 colon
SK-MEL-5 melanoma = system: SK-MEL-5 melanoma
RXF 393 renal = system: RXF 393 renal
SNB-75 CNS = system: SNB-75 CNS
DU-145 prostate = system: DU-145 prostate
TK-10 renal = system: TK-10 renal
DMS 114 small cell lung = system: DMS 114 small cell lung
RPMI-8226 leukemia = system: RPMI-8226 leukemia
OVCAR-8 ovarian = system: OVCAR-8 ovarian
MOLT-4 leukemia = system: MOLT-4 leukemia
SK-MEL-2 melanoma = system: SK-MEL-2 melanoma
SF-268 CNS = system: SF-268 CNS
786-0 renal = system: 786-0 renal
OVCAR-4 ovarian = system: OVCAR-4 ovarian
PC-3 prostate = system: PC-3 prostate
NCI/ADR-RES ovarian = system: NCI/ADR-RES ovarian
OVCAR-3 ovarian = system: OVCAR-3 ovarian
KM20L2 colon = system: KM20L2 colon
HL-60(TB) leukemia = system: HL-60(TB) leukemia
U251 CNS = system: U251 CNS
MDA-MB-435 = system: MDA-MB-435
EKVX NSCLC = system: EKVX NSCLC
SF-539 CNS = system: SF-539 CNS
NCI-H226 lung = system: NCI-H226 lung
SK-OV-3 ovarian = system: SK-OV-3 ovarian
HCC-2998 colon = system: HCC-2998 colon
ACHN renal = system: ACHN renal
MCF7 breast = system: MCF7 breast
T-47D breast = system: T-47D breast
HS 578T breast = system: HS 578T breast
HCT-15 colon = system: HCT-15 colon
UO-31 renal = system: UO-31 renal
A498 renal = system: A498 renal
A549 NSCLC = system: A549 NSCLC
SNB-19 CNS = system: SNB-19 CNS
IGROV1 ovarian = system: IGROV1 ovarian
HOP-18 NSCLC = system: HOP-18 NSCLC
COLO 205 colon = system: COLO 205 colon
M19-MEL melanoma = system: M19-MEL melanoma
KM12 colon = system: KM12 colon
XF 498 CNS = system: XF 498 CNS
UACC-62 melanoma = system: UACC-62 melanoma
MDA-MB-231 breast = system: MDA-MB-231 breast
SW-620 colon = system: SW-620 colon
LXFL 529 NSCLC = system: LXFL 529 NSCLC

## Cc1cc(N(CC(C)Br)CC(C)Br)ccc1N=Nc1ccccc1C(=O)O (centres undefined)
NCI-H460 lung
  TGI: 11.7 µM
DLD-1 colon
  TGI: 16.6 µM
SK-MEL-28 melanoma
  TGI: 5.43 µM
SR leukemia
  TGI: > 40.7 µM
SN12C renal
  TGI: 20 µM
K-562 leukemia
  TGI: 4.8 µM
SF-295 CNS
  TGI: 6.33 µM
HOP-62 NSCLC
  TGI: 22.8 µM
MDA-N
  TGI: 20.5 µM
CCRF-CEM leukemia
  TGI: > 94.1 µM
HCT-116 colon
  TGI: 20.3 µM
CAKI-1 renal
  TGI: 6.9 µM
LOX IMVI melanoma
  TGI: 31.9 µM
BT-549 breast
  TGI: 26.5 µM
DMS 273 small cell lung
  TGI: 20.5 µM
UACC-257 melanoma
  TGI: 19 µM
OVCAR-5 ovarian
  TGI: 10.2 µM
HOP-92 NSCLC
  TGI: 10 µM
MALME-3M melanoma
  TGI: 18.6 µM
NCI-H23 lung
  TGI: 18.1 µM
SNB-78 CNS
  TGI: 40.2 µM
M14 melanoma
  TGI: 20.1 µM
NCI-H522 lung
  TGI: 9.02 µM
HT29 colon
  TGI: 14.2 µM
SK-MEL-5 melanoma
  TGI: 14.6 µM
RXF 393 renal
  TGI: 4.3 µM
SNB-75 CNS
  TGI: 11.2 µM
DU-145 prostate
  TGI: 20 µM
TK-10 renal
  TGI: 24.4 µM
DMS 114 small cell lung
  TGI: 11.1 µM
RPMI-8226 leukemia
  TGI: 7.24 µM
OVCAR-8 ovarian
  TGI: > 52.4 µM
MOLT-4 leukemia
  TGI: > 100 µM
SK-MEL-2 melanoma
  TGI: 10.2 µM
SF-268 CNS
  TGI: > 38.8 µM
786-0 renal
  TGI: 16.4 µM
OVCAR-4 ovarian
  TGI: 5.53 µM
PC-3 prostate
  TGI: 30 µM
NCI/ADR-RES ovarian
  TGI: > 100 µM
OVCAR-3 ovarian
  TGI: 47.2 µM
KM20L2 colon
  TGI: 24.2 µM
HL-60(TB) leukemia
  TGI: 36.6 µM
U251 CNS
  TGI: 22 µM
MDA-MB-435
  TGI: 33.5 µM
EKVX NSCLC
  TGI: 21.8 µM
SF-539 CNS
  TGI: 4.39 µM
NCI-H226 lung
  TGI: 13.3 µM
SK-OV-3 ovarian
  TGI: 39.7 µM
HCC-2998 colon
  TGI: 6.19 µM
ACHN renal
  TGI: 13.5 µM
MCF7 breast
  TGI: 7.67 µM
T-47D breast
  TGI: 5 µM
HS 578T breast
  TGI: 49.2 µM
HCT-15 colon
  TGI: 29 µM
UO-31 renal
  TGI: 37.5 µM
A498 renal
  TGI: 3.91 µM
A549 NSCLC
  TGI: 19.9 µM
SNB-19 CNS
  TGI: 23.5 µM
IGROV1 ovarian
  TGI: 24.2 µM
HOP-18 NSCLC
  TGI: 8.29 µM
COLO 205 colon
  TGI: 19.7 µM
M19-MEL melanoma
  TGI: 29 µM
KM12 colon
  TGI: 27.4 µM
XF 498 CNS
  TGI: 4.62 µM
UACC-62 melanoma
  TGI: 3.4 µM
MDA-MB-231 breast
  TGI: 32.8 µM
SW-620 colon
  TGI: > 84.1 µM

## Cc1ccc(S(=O)(=O)OC2CC=CC2)cc1
NCI-H460 lung
  TGI: > 100 µM
DLD-1 colon
  TGI: > 100 µM
SK-MEL-28 melanoma
  TGI: > 100 µM
SN12C renal
  TGI: > 100 µM
K-562 leukemia
  TGI: > 100 µM
SF-295 CNS
  TGI: > 100 µM
HOP-62 NSCLC
  TGI: > 100 µM
CCRF-CEM leukemia
  TGI: > 100 µM
HCT-116 colon
  TGI: > 100 µM
CAKI-1 renal
  TGI: > 100 µM
LOX IMVI melanoma
  TGI: > 100 µM
DMS 273 small cell lung
  TGI: > 100 µM
UACC-257 melanoma
  TGI: > 100 µM
OVCAR-5 ovarian
  TGI: > 100 µM
HOP-92 NSCLC
  TGI: > 100 µM
MALME-3M melanoma
  TGI: > 100 µM
SNB-78 CNS
  TGI: > 100 µM
M14 melanoma
  TGI: > 100 µM
HT29 colon
  TGI: > 100 µM
SK-MEL-5 melanoma
  TGI: > 100 µM
RXF 393 renal
  TGI: > 100 µM
SNB-75 CNS
  TGI: > 100 µM
TK-10 renal
  TGI: > 100 µM
DMS 114 small cell lung
  TGI: > 100 µM
RPMI-8226 leukemia
  TGI: > 100 µM
LXFL 529 NSCLC
  TGI: > 100 µM
OVCAR-8 ovarian
  TGI: > 100 µM
MOLT-4 leukemia
  TGI: > 100 µM
SK-MEL-2 melanoma
  TGI: > 100 µM
786-0 renal
  TGI: > 100 µM
OVCAR-4 ovarian
  TGI: > 100 µM
OVCAR-3 ovarian
  TGI: > 100 µM
KM20L2 colon
  TGI: > 100 µM
HL-60(TB) leukemia
  TGI: > 100 µM
U251 CNS
  TGI: > 100 µM
EKVX NSCLC
  TGI: > 100 µM
NCI-H226 lung
  TGI: > 100 µM
SK-OV-3 ovarian
  TGI: > 100 µM
HCC-2998 colon
  TGI: > 100 µM
ACHN renal
  TGI: > 100 µM
HCT-15 colon
  TGI: > 100 µM
UO-31 renal
  TGI: > 100 µM
A549 NSCLC
  TGI: > 100 µM
SNB-19 CNS
  TGI: > 100 µM
IGROV1 ovarian
  TGI: > 100 µM
HOP-18 NSCLC
  TGI: > 100 µM
COLO 205 colon
  TGI: > 100 µM
M19-MEL melanoma
  TGI: > 100 µM
KM12 colon
  TGI: > 100 µM
XF 498 CNS
  TGI: > 100 µM
UACC-62 melanoma
  TGI: > 100 µM
SW-620 colon
  TGI: > 100 µM
